Test results reported in patent US12636371B2, “Chemically coupled transporter for low-hydrophobicity bioactive drugs into the central nervous system” (Skybio LLC, priority 2021, dated 2026).
Values after ≈ are worked out from the molar mass of the structure shown. Read-outs that look alike come from different tables or passages of the source.

Tests used:
[1] = test system: E. coli DH5α; assay: Antibiotic activity by disc diffusion assay (MIC); assay type: cell-based; conditions: for MIC: Escherichia coli; for RATE MIC Compound/Doxycycline: ratio of MIC to doxycycline MIC
Procedure: In order to examine the antibiotic activity of the compounds synthesized in Example 1, an assay was performed using E. coli DH5α (Gram(−)), as a sensitive, indicator strain.
The antibacterial activities of test compounds were evaluated using the disc diffusion method (Kavanagh, F. Dilution methods of antibiotic assays in Analytical Microbiology. 1963; Pomares M F, Vincent P A, Farías R N, Salomón R A. Protective action of ppGpp in microcin J25-sensitive strains. J Bacteriol. 2008-190:4328-34). Briefly, filter-paper discs impregnated with 10 μl of two-fold serial dilutions of the test compounds, and were placed onto LB solid medium Petri dishes. Then, aliquots (50 μl) of an E. coli DH5α culture in stationary phase were mixed with 3 ml of top agar (0.7% agar) and overlaid onto the plates. After overnight incubation at 37° C., the plates were examined for different degrees of inhibition. Inhibition degrees produced by the test compound are expressed as Minimum Inhibitory Concentrations (MICs), defined as the lowest concentration of a compound that inhibit visible growth of bacteria. Each test was performed in duplicate vs. the reference compound Doxycycline.

[2] = target: D1 dopamine receptor (Homo sapiens, UniProt P21728); assay: D1 receptor agonist assay, cAMP Nomad biosensor, HEK_cAMPNmd_FP650_D1 cells; conditions: 24 h, 10 serial 1:3 dilutions from 30 μM, triplicate
Procedure: To detect Nomad biosensor activation, the assay medium was removed and replaced by 100 ml of DPBS with calcium and magnesium. […] In U2OS_cAMPNmd_FP650_D2 cells, images were acquired using the CellInsight CX7 HCS Platform, and the number of fluorescent vesicles per cell was quantified with the HCS Studio Cell Analysis Software.

[3] = target: D2 dopamine receptor (Homo sapiens, UniProt P14416); assay: D2 receptor agonist assay, cAMP Nomad biosensor, U2OS_cAMPNmd_FP650_D2 cells; assay type: cell-based; conditions: 24 h, 10 serial 1:3 dilutions from 30 μM, triplicate
Procedure: HEK_cAMPNmd_FP650_D1 and U2OS_cAMPNmd_FP650_D2 cells were seeded at a density of 30.000 and 20.000 cells/well, respectively, in 96-well plates. Cells were maintained in DMEM or DMEM-F12 medium supplemented with 10% FBS during 24 h at 37° C. in a humidified 5% CO2 atmosphere.
Cells were then incubated for 24 h.
To detect Nomad biosensor activation, the assay medium was removed and replaced by […] of DPBS with calcium and magnesium. […] In U2OS_cAMPNmd_FP650_D2 cells, images were acquired using the CellInsight CX7 HCS Platform, and the number of fluorescent vesicles per cell was quantified with the HCS Studio Cell Analysis Software.
The effect of the compounds in the regulation of D1 or D2 receptors' activation was analyzed measuring the CAMP signaling using the Nomad biosensor-based assay.
This same experiment was carried out in the U2OS_cAMPNmd_FP650_D2 cell line (FIG. 10). The effect of the compounds was analyzed quantifying the number of fluorescent vesicles in the cytoplasm of the cells using the HCS Studio Cell Analysis Software.

[4] = test system: SH-SY5Y cells; assay: CellROX assay of intracellular reactive oxygen species induced by ASf; assay type: cell-based; conditions: 10 μM compound alone, 24 h
Procedure: In order to characterize the antioxidant properties of D9, its protective action on the AS-induced production of reactive oxygen species (ROS) in a cellular model was assessed. For this, SH-SY5Y cells were treated with fibrils of AS (ASf) (AS incubated 120 h at 37° C. and 600 rpm), and the reactive oxygen species produced were examined using the CellROX® Orange Reagent (Invitrogen), which undergoes oxidation by ROS to form a stable fluorescent compound.
In addition, cells were also treated with doxycycline 10 μM+7 μM ASf (ASf+Doxy) as a positive control, and 10 μM doxycycline alone (Doxy). All conditions were incubated 24 h at 37° C. and 5% CO2. […] Fluorescent images of randomly chosen fields were acquired with identical acquisition parameters using a Zeiss Axio Vert.A1 inverted fluorescence microscope.

[5] = disc diffusion, two-fold serial dilutions from 2 mg/ml, LB solid medium, overnight 37° C., read-out: MIC

D1 dopamine receptor, sequence (P21728 whole entry): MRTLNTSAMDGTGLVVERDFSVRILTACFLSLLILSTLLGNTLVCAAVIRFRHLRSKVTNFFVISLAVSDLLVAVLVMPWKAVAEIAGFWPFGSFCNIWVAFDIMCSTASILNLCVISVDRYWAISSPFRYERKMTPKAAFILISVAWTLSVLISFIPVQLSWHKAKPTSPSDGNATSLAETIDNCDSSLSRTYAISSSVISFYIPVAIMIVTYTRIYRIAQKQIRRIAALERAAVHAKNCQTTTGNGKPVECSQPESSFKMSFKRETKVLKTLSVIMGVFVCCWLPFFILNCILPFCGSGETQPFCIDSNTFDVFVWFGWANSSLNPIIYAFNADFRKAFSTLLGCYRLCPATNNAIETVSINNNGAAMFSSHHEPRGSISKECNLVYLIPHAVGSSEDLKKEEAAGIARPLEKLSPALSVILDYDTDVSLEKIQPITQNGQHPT
D2 dopamine receptor, sequence (P14416 whole entry): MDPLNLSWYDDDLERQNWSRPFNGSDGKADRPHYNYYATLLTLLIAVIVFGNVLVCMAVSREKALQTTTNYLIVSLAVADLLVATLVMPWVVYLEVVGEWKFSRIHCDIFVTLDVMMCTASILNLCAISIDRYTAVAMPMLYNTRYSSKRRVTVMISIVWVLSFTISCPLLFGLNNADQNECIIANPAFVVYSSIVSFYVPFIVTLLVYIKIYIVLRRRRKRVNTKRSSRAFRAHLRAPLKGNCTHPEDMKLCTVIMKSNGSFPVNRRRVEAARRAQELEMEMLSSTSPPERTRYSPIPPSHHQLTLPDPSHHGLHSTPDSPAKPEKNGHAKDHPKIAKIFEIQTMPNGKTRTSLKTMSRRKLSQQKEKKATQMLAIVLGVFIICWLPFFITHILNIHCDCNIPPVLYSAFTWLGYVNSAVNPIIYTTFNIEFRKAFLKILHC

SMILES	MIC [1, 5]	RATE MIC Compound/Doxycycline [1]	MIC [1]	EC50, D1 receptor activation [2]	EC50, D2 receptor activation [3]	Intracellular ROS induced by compound alone [4]
C[C@H]1c2cccc(O)c2C(=O)C2=C(O)[C@]3(O)C(=O)C(C(N)=O)=C(O)C(N(C)C)C3[C@@H](O)C21 (some centres unmarked) [Compound D1, Doxycycline Free Form, reference compound]	31.2 µg/mL (≈ 70.3 µM)	1				
C[C@H]1c2cccc(O)c2C(=O)C2=C(O)[C@]3(O)C(=O)C(C(N)=O)=C(O)CC3[C@@H](O)C21 (some centres unmarked) [Compound D3, 4-dedimethylaminodoxycycline]		16	500 µg/mL (≈ 1250 µM)			
C[C@H]1c2ccc([N+](=O)[O-])c(O)c2C(=O)C2=C(O)[C@]3(O)C(=O)C(C(N)=O)=C(O)CC3[C@@H](O)C21 (some centres unmarked) [Compound D4, 4-dedimethylamino-9-nitro doxycycline]	1000 µg/mL (≈ 2240 µM)	32				
C[C@H]1c2ccc(N)c(O)c2C(=O)C2=C(O)[C@]3(O)C(=O)C(C(N)=O)=C(O)CC3[C@@H](O)C21 (some centres unmarked) [Compound D5, 9-amino-4-dedimethylamino doxycycline]	250 µg/mL (≈ 600 µM)	8		did not act as an agonist of the D1 receptor	did not act as an agonist of the D2 receptor	
C[C@H]1c2ccc(NC(=O)CCl)c(O)c2C(=O)C2=C(O)[C@]3(O)C(=O)C(C(N)=O)=C(O)CC3[C@@H](O)C21 (some centres unmarked) [Compound D6, 9-(2-chloroacetamido)-4-dedimethylamino doxycycline]		64	2000 µg/mL (≈ 4060 µM)			
C[C@H]1c2cccc(O)c2C(=O)C2=C(O)[C@]3(O)C(=O)C(C(N)=O)=C(O)[C@@H](N(C)C)[C@@H]3[C@@H](O)[C@@H]21 [Doxycycline, reference compound]	31.2 µg/mL (≈ 70.3 µM)					neither the presence of D9 nor doxycycline induced intracellular ROS
